Experimental data reported in PubChem BioAssay AID1259338 (Broad Institute, 2017).
Active and inactive are the calls of the source.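 Rule for the calls: active = compounds lowering the signal with a fitted AC50 at or below a set concentration limit; inconclusive = flat curve with 30 to 70% inhibition, or a poor fit; inactive = the rest.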

Molecular target: Caspase recruitment domain-containing protein 9 (Homo sapiens) + E3 ubiquitin-protein ligase TRIM62 (Homo sapiens) (UniProt Q9H257+Q9BVG3)
Assay: CARD9/TRIM62 protein interaction inhibitors – cell lysate, HEK293FT lysates, Luminex bead readout, dose response (AID 1259338); for activity change, negative = inhibition: reference of the scale not given here
Settings: Luminex bead PPI, MFI

Caspase recruitment domain-containing protein 9 (Homo sapiens) + E3 ubiquitin-protein ligase TRIM62 (Homo sapiens), sequence (Q9BVG3 whole entry, looked up, the tested form may be a part): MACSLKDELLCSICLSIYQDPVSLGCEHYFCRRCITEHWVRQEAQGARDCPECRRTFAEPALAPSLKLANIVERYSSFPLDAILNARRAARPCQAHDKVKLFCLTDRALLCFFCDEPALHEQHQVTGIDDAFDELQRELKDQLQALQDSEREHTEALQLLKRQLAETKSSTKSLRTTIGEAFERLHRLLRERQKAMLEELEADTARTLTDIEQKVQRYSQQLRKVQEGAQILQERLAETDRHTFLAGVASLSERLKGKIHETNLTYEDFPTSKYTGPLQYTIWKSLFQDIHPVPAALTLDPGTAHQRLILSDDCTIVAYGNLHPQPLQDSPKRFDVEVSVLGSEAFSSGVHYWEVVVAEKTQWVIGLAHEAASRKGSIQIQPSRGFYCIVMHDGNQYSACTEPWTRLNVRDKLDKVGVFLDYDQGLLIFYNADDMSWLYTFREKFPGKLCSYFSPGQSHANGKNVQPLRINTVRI
Caspase recruitment domain-containing protein 9 (Homo sapiens) + E3 ubiquitin-protein ligase TRIM62 (Homo sapiens), sequence (Q9H257 whole entry, looked up, the tested form may be a part): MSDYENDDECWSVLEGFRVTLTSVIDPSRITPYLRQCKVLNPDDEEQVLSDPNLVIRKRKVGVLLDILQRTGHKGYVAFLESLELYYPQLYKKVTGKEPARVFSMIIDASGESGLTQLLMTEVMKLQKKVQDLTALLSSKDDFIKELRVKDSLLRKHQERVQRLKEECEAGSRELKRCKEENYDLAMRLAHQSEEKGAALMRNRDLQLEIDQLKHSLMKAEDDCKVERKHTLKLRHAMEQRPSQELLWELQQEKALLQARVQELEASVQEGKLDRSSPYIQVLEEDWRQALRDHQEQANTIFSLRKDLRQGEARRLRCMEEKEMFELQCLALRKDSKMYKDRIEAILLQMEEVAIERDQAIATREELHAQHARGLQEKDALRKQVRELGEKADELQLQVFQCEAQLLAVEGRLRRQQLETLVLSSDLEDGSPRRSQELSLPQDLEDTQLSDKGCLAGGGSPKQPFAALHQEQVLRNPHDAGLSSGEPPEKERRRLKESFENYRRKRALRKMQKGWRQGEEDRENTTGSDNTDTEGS

SMILES | activity change, negative = inhibition (at 80 µM (top of the series)) | AC50 | also measured
C[C@H](CO)N1C[C@H](C)[C@H](CN(C)C(=O)C2CCCCC2)OCCCC[C@H](C)Oc2ccc(NS(=O)(=O)c3cccs3)cc2C1=O | inactive | – | –
Cc1[nH]c2ccc(Cl)cc2c(=O)c1CN1CCCC1 | inactive | – | –
COc1ccc(S(=O)(=O)Nc2ccc3c(c2)C(=O)N([C@H](C)CO)C[C@H](C)[C@@H](CN(C)C(=O)C2CCCCC2)OCCCC[C@H](C)O3)cc1 | inactive | – | –
O=C(O)c1ccc2nc(-c3ccco3)c(-c3ccco3)nc2c1 | – | 34.7 µM | –
Cc1cc(C(=O)Nc2nc3c(s2)CCc2ccccc2-3)no1 | inactive | – | –
Fc1ccc(CSc2nnc(-c3cccnc3)n2Cc2ccco2)cc1 | inactive | – | –
C[C@H](CO)N1C[C@H](C)[C@@H](CN(C)C(=O)C2CCCCC2)OCCCC[C@H](C)Oc2ccc(NS(=O)(=O)c3ccc(F)cc3)cc2C1=O | inactive | – | –
O=C(O)Cc1c[nH]c2cccc(O)c12 | inactive | – | –
CC(=O)Nc1ccc(Nc2nc(-c3nnc(-c4cccc(C)c4)o3)nc3ccccc23)cc1 | inactive | – | –
Cc1ccc(S(=O)(=O)Nc2ccc3c(c2)C(=O)N([C@H](C)CO)C[C@H](C)[C@@H](CN(C)C(=O)C2CCCCC2)OCCCC[C@H](C)O3)cc1 | – | > 160 µM (inactive) | –
CN(Cc1ccco1)S(=O)(=O)c1nnc(NC(=O)c2ccccc2)s1 | inactive | – | –
NC(=O)C1(N2CCCCC2)CCN(c2ncc(NC(=O)c3ccccc3F)cc2C(=O)O)CC1 | – | 18 µM | –
N#CCSc1nc2c(c(=O)n1Cc1ccco1)C1(CCCC1)Cc1ccccc1-2 | inactive | – | –
C[C@H](CO)N1C[C@H](C)[C@@H](CN(C)CC2CCCCC2)OCCCC[C@H](C)Oc2ccc(NS(=O)(=O)c3ccccc3)cc2C1=O | inactive | – | –
CCNc1ncc(C(=O)NCCc2nc3c(s2)CCCC3)cn1 | inactive | – | –
O=C(NCCc1ccccc1)c1cc2cccnc2n(Cc2ccccc2)c1=O | – | > 160 µM (inactive) | –
Cc1ccc(C)n1Nc1nc(O)cs1 | – | – | activity change, negative = inhibition (at 38 µM (top of the series)): inactive
N#Cc1c2ccc(OCC(=O)NCc3ccco3)cc2n2ccccc12 | inactive | – | –
Cc1sc2ncnc(SCc3ccco3)c2c1C | inactive | – | –
COC[C@]1(O)CCN(C(=O)CCN(C)S(C)(=O)=O)CC1(C)C | inactive | – | –
O=C(Cc1cccs1)Nc1nnc(Cc2ccccc2)s1 | inactive | – | –

SMILES | activity change, negative = inhibition (at 80 µM (top of the series)) | AC50 | also measured
O=C(NCc1ccco1)C1CCCN(S(=O)(=O)c2cccc3nonc23)C1 (stereo not drawn) | inactive | – | –
CCCN1CCCn2nc(CNC(=O)[C@H]3CC[C@@H](N)C3)cc2C1 | – | 23 µM | –
O=C(Nc1nccs1)c1cc(-c2ccco2)nc2ccccc12 | – | > 160 µM (inactive) | –
COc1ccc(NC(=O)c2nc(Nc3ccccc3)c3ccccc3n2)cc1 | – | – | activity change, negative = inhibition (at 38 µM (top of the series)): inactive
O=C(NCCCN1CCOCC1)c1cc(-c2ccco2)nc2ccccc12 | – | 41.8 µM | –
COc1ccc(NC(=O)CN(C)C(=O)c2cc(-c3ccco3)nc3ccccc23)cc1 | – | 78.2 µM | –
CC1(C)Cc2ccccc2-c2nc(-c3ccccc3)oc(=O)c21 | inactive | – | –
O=C(O)COc1ccc(-n2cccc2)cc1 | inactive | – | –
CCCN1CCCn2nc(CNC(=O)[C@@H](N)Cc3ccc(O)cc3)cc2C1 | – | 27.8 µM | –
COc1ccc(S(=O)(=O)N2CCN(C(=O)c3cc4c(s3)CCC4)CC2)cc1 | – | 63.1 µM | –
O=C(COc1cccnc1[N+](=O)[O-])c1ccc(Cl)s1 | inactive | – | –
Cc1noc(CN(C)C(=O)c2cc(-c3ccco3)nc3c(C)c(Cl)ccc23)n1 | inactive | – | –
CCC1c2ccc(C)n2CCN1C(=O)Nc1ccccc1C(=O)OC (stereo not drawn) | inactive | – | –
COCC(=O)N1CCCC2(CCN(CCN3CCCC3)C2=O)C1 (stereo not drawn) | – | > 160 µM (inactive) | –
Cc1ccc(Nc2nc(C(=O)Nc3ccc(Br)cc3)nc3ccccc23)cc1 | inactive | – | –
Cc1ccc2c(c1)C(N1CCCC1=O)CC(c1ccco1)N2 (stereo not drawn) | inactive | – | –
C[C@H](CO)N1C[C@H](C)[C@@H](CN(C)CC2CCCCC2)OCCCC[C@H](C)Oc2ccc(NS(=O)(=O)c3cn(C)cn3)cc2C1=O | inactive | – | –
COc1ccc(S(=O)(=O)Nc2ccc3c(c2)C(=O)N([C@H](C)CO)C[C@H](C)[C@@H](CN(C)CC2CCCCC2)OCCCC[C@H](C)O3)cc1 | – | > 160 µM (inactive) | –
COc1cccc(NC(=O)CN(C)C(=O)c2cc3c(s2)CCC3)c1 | – | 50.6 µM | –
NC(=O)C1(N2CCCCC2)CCN(c2ccc(NC(=O)c3cccc(Cl)c3)cc2C(=O)O)CC1 | – | 14.8 µM | –

Continued, in another order:

activity change, negative = inhibition (at 80 µM (top of the series)) | AC50 | SMILES | also measured
inactive | – | Cc1nc2ccccc2nc1CSCc1ccco1 | –
inactive | – | Cc1cc(C)c2c(N)c(C(=O)Nc3cccc4ccccc34)sc2n1 | –
inactive | – | COc1ccc(Nc2nc(-c3nnc(-c4ccc(F)cc4)o3)nc3ccccc23)cc1Cl | –
inactive | – | O=C(CCCN1C(=O)NC2(CCCC2)C1=O)Nc1ccc(F)cc1 | –
inactive | – | Cc1nn2c(c1-c1ccccc1)NC(c1ccco1)=CC2c1ccco1 (stereo not drawn) | –
inactive | – | N#Cc1c(-c2ccco2)cc(-c2ccccn2)nc1N | –
– | 7.55 µM | Cc1ccccc1C(=O)Nc1cnc(N2CCC(C(N)=O)(N3CCCCC3)CC2)c(C(=O)O)c1 | –
inactive | – | CC(=O)Nc1ccc2nc3c(=O)n(C)c(=O)n(C)c3nc2c1 | –
– | > 160 µM (inactive) | Nc1ccc(-c2cccc(CN3CCCC3)c2)cc1 | –
inactive | – | O=C(Nc1nc(-c2ccco2)c(-c2ccco2)s1)c1ccco1 | –
– | 24.3 µM | Cc1ccc(C(=O)Nc2ccc(N3CCC(C(N)=O)(N4CCCCC4)CC3)c(C(=O)O)c2)cc1 | –
inactive | – | Cc1ccc(C2CC(=O)C3=C(C2)Nc2ccccc2NC3c2cccnc2)cc1 (stereo not drawn) | –
inactive | – | Cc1ccc(N2C(=O)c3ccccc3C2C(=O)c2ccc(O)cc2O)cc1 (stereo not drawn) | –
inactive | – | O=C(CN1CCN(c2ccccc2O)CC1)NC(=O)NC1CCCC1 | –
– | 1.53 µM | C=CC(=O)N1CCCC2(CCN(CCN3CCCC3)C2=O)C1 (stereo not drawn) | –
– | 83.4 µM | CC1=CCC(C(=O)O)C(C(=O)NC2CCCCC2)C1 (stereo not drawn) | –
– | > 160 µM (inactive) | Cc1noc(C)c1S(=O)(=O)Nc1ccc2c(c1)C(=O)N([C@H](C)CO)C[C@H](C)[C@@H](CN(C)C(=O)C1CCCCC1)OCCCC[C@H](C)O2 | –
inactive | – | O=C(Nc1ncccc1O)c1ccc(OCC2CCCO2)cc1 (stereo not drawn) | –
inactive | – | CN(c1ccccc1C(=O)NCc1ccco1)S(C)(=O)=O | –
inactive | – | CCOc1cc2c(C#N)c(N3CCNCC3)nc(N)c2c(N)n1 | –
inactive | – | CCOc1ccc(-n2c3nc4ccccc4nc3c3c(=O)n(Cc4ccco4)cnc32)cc1 | –
inactive | – | Cc1occc1C(=O)NCc1cccc(CNC(=O)c2ccoc2C)c1 | –
inactive | – | N#Cc1c(-c2ccco2)cc(-c2cccnc2)nc1N | –
inactive | – | CCCC(=O)NCc1ccc2c(c1)cc(C)n2C | –
inactive | – | O=c1oc(-c2ccccc2)nc2sc3c(c12)CCC3 | –
inactive | – | On1c(-c2ccco2)nc2c1CCc1nonc1-2 | –

activity change, negative = inhibition (at 80 µM (top of the series)) | AC50 | SMILES | also measured
inactive | – | N#Cc1c2c(c(NCc3ccco3)n3c1nc1ccccc13)CCC2 | –
inactive | – | CCCOc1ccc(CCC(=O)O)cc1 | –
– | > 160 µM (inactive) | Cc1ncnc(N2CCC(c3nccn3Cc3cccnc3)CC2)c1C | –
inactive | – | CC(C(=O)N1CCCC1)N1CCN(c2ccccc2O)CC1 (stereo not drawn) | –
inactive | – | FC(F)(F)c1cc(Cl)c2nnc(C(F)(F)Cl)n2c1 | –
– | > 160 µM (inactive) | CC(=O)c1ccc(NC(=O)c2noc3c2CCC3)cc1 | –
inactive | – | Cc1ccc(-c2nn(-c3ccccc3)cc2CN(Cc2ccccc2)C(=O)CCC(=O)O)o1 | –
inactive | – | CN(C)C(CN=C1NS(=O)(=O)c2ccccc21)c1ccco1 (stereo not drawn) | –
inactive | – | O=C(Nc1ccc2c(c1)nc1n2CCN(C2CCCCC2)C1)c1ccco1 | –
inactive | – | O=C1c2ccccc2S(=O)(=O)N1Cc1cccc(S(=O)(=O)N2CCOCC2)c1 | –
inactive | – | N#Cc1c(NC(=O)CSc2nc3ccccc3o2)sc2c1CCC2 | –
inactive | – | CCCN1CCc2nc(SCc3nc(-c4ccc(OC)cc4OC)oc3C)[nH]c(=O)c2C1 | –
inactive | – | O=C(CCc1nc(-c2ccccc2)no1)NCC1CNCCOC1 (stereo not drawn) | –
inactive | – | O=C(O)CCc1ccc(-c2cccs2)n1NC(=O)c1ccco1 | –
inactive | – | Nc1cc2c(cc1O)CCCC2 | –
inactive | – | CCOC(=O)/C=C/S(=O)(=O)c1ccc(NC(C)=O)cc1 | –
– | > 160 µM (inactive) | O=C(NCc1cccnc1)c1ccccc1-c1nc(-c2ccccc2)no1 | –
inactive | – | O=C(CC1Nc2ccccc2OC1=O)Nc1ccc(Cl)cc1 (stereo not drawn) | –
– | 6.01 µM | NC(=O)C1(N2CCCCC2)CCN(c2ncc(NC(=O)c3ccc(Cl)cc3)cc2C(=O)O)CC1 | –
inactive | – | O=S(=O)(Nc1nc2ccccc2nc1NCc1ccco1)c1ccccc1 | –
– | > 160 µM (inactive) | Cc1ccsc1[C@@H]1CCN(Cc2ccc(-c3ccn[nH]3)o2)C[C@H]1O | –
inactive | – | O=C(NC(Sc1ncccn1)C(=O)c1ccccc1)c1ccccc1 (stereo not drawn) | –
– | 8.64 µM | Cc1ccc(C(=O)Nc2cnc(N3CCC(C(N)=O)(N4CCCCC4)CC3)c(C(=O)O)c2)cc1 | –
– | 75 µM | Cc1ccc(-c2cc(C(=O)NCc3ccco3)c3ccccc3n2)o1 | –
– | 50.9 µM | Cc1ccc(N2NC(c3ccc(Br)cc3)=CCC2=O)cc1 | –
inactive | – | Nc1cc2c(cc1-n1cccc1)OCCO2 | –
